This note sets out measurements from ChEMBL document CHEMBL5131518, “Discovery of 2-Phenylquinolines with Broad-Spectrum Anti-coronavirus Activity” (ACS Med Chem Lett, 2022).

Data set [1] can be described thus: in vitro. The conditions noted are these: monkey, Vero E6 cells.
Description: Selectivity index, ratio of CC50 for cytotoxicity against African green monkey Vero E6 cells to EC50 for antiviral activity against SARS-CoV-2 infected in eGFP expressing African green monkey Vero E6 cells
A short description of data set [2]: Inhibition of SARS-CoV-2 RdRp expressed in Escherichia coli BL21 DE3 co-expressing […] incubated for 1 hr by fluorescent based assay. Details: species or system Severe acute respiratory syndrome coronavirus 2.
Data set [3] deals with Severe acute respiratory syndrome coronavirus 2. In words: Inhibition of SARS-CoV-2 RdRp expressed in Escherichia coli BL21 DE3 co-expressing […] at 30 uM incubated for 1 hr by fluorescent bases assay.
Data set [4] in a line: in vitro. The conditions noted are these: human, HEL 299 cells.
Description: Selectivity index, ratio of CC50 for cytotoxicity against HEL 299 cells to EC50 for antiviral activity against HCoV-229E infected in HEL 299 cells
Data set [5] addresses Replicase polyprotein 1ab (Severe acute respiratory syndrome coronavirus 2) (UniProt P0DTD1). Briefly: Inhibition of SARS-CoV-2 nsp13 ATPase-associated activity using ATP as substrate at highest concentration of compound incubated for 30 mins by Biomol Green Reagent based assay.

Turning to `CCCOc1ccc(-c2cc(OCCN(CC)CC)c3c(OC)c(OC)c(OC)cc3n2)cc1`, the selectivity ratio in data set [1] stood at 2.9.
For `CCCOc1ccc(-c2cc(OCCN3CCCC3)c3cc(OC)cc(OC)c3n2)cc1`, the IC50 in data set [2] was > 30 µM. This molecule also displayed an inhibition in data set [3] of 100%. Moreover, the selectivity ratio was > 16.9 in data set [1] and > 2.5 in data set [4].
As to `C=CCn1c(S)nnc1CSc1ccccc1[N+](=O)[O-]`, the inhibition in data set [5] came to 90%.
On to `CCCOc1ccc(-c2cc(OCCN3CCCC3)c3c(OC)ccc(OC)c3n2)cc1`, for which the selectivity ratio in data set [1] was 7.9; in data set [4] it was 13.4.
For `CCCOc1ccc(-c2cc(OCCN3CCN(Cc4ccccc4)CC3)c3c(OC)cc(OC)cc3n2)cc1`, the concentration for half-maximal inhibition (IC50) in data set [2] was > 30 µM. Further, the inhibition in data set [3] was 100%. The selectivity ratio was > 12.7 in data set [1] and 16.4 in data set [4].
For `CCCOc1ccc(-c2cc(OCCN3CCNCC3)c3cccc(OC)c3n2)cc1`, the results for the selectivity ratio in data set [1] and in data set [4] were 4.3 and 25.6, respectively.
For the molecule `CCCOc1ccc(-c2cc(OCCN(CC)CC)c3c(OC)ccc(OC)c3n2)cc1`, the selectivity ratio in data set [1] turned out to be 5.3; in data set [4] it was 13.8.
In the case of `CCCOc1ccc(-c2cc(OCCN3CCCC3)c3cc(OC)c(OC)cc3n2)cc1`, the selectivity ratio in data set [1] amounted to 1.3.
The same measure, in the same setting: next, `CCCOc1ccc(-c2cc(OCCN3CCN(Cc4ccccc4)CC3)c3cccc(OC)c3n2)cc1`: 2.8.
On to `CCCOc1ccc(-c2cc(OCCN(CC)CC)c3cc(OC)c(OC)cc3n2)cc1`, for which the results for the selectivity ratio in data set [1] and in data set [4] were 13.8 and 5.2, respectively.
For `CCCOc1ccc(-c2cc(OCCN3CCN(Cc4ccccc4)CC3)c3ccccc3n2)cc1`, the selectivity ratio is > 8.4 in data set [1] and > 1.6 in data set [4].
For `CCCOc1ccc(-c2cc(OCCN3CCCCC3)c3cc(OC)c(OC)cc3n2)cc1`, the values for the selectivity ratio in data set [1] and in data set [4] were 4.3 and 52.4, respectively.
For the molecule `CCCOc1ccc(-c2cc(OCCN3CCc4cc(OC)c(OC)cc4C3)c3c(OC)cc(OC)cc3n2)cc1`, in data set [2], the half-maximal inhibitory concentration (IC50) is > 30 µM.
As for `CCCOc1ccc(-c2cc(OCCN(CC)CC)c3cc(OC)cc(OC)c3n2)cc1`, the selectivity ratio is > 7.7 in data set [1] and 12.4 in data set [4].
For `CCCOc1ccc(-c2cc(OCCN3CCCCC3)c3c(OC)ccc(OC)c3n2)cc1`, the half-maximal inhibitory concentration (IC50) in data set [2] was > 30 µM. Further, the inhibition in data set [3] came out at 100%. Further, the selectivity ratio was determined as 8.8 in data set [1] and 10.2 in data set [4].
As to `CCCOc1ccc(-c2cc(OCCN(CC)CC)c3cccc(OC)c3n2)cc1`, the selectivity ratio in data set [1] is > 11; in data set [4] it was 8.2.

As a reminder, the IC50 is the midpoint of a concentration-inhibition curve. Higher therefore signals weaker potency. In general, inhibition refers to the percentage by which the read-out fell short of the control. A high value points to strong suppression.
